Activity calls are given as the source filed them.
Legend:
cells [1] = format: functional, cell-based
[2] = C. albicans growth with fluconazole, confirmation, fluorescence, retest (AID 2467); format: functional, cell-based
cells [3] = format: functional, cell-based; remark: listed apart in the source
[4] = NIH-3T3 fibroblast cytotoxicity, dose response, cytotoxicity control, cell-based, fluorescence, Alamar Blue, secondary assay (AID 2327); format: functional;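 note: NIH-3T3 mouse fibroblasts cultured with fluconazole at 8 µg/mL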
[5] = molecular target: Heat shock protein HSP 90-alpha (Homo sapiens, UniProt P07900); format: functional, organism-based
[6] = Luminescence Cell-Based Dose Response HTS to Identify Activators of Luciferase Translation or Activity in H4 […] Cells. [Related pubchem assays: 1829 (Project Summary), 1814 (Primary HTS)]; format: functional
[7] = Luminescence Cell-Based Dose Confirmation HTS to Identify Activators of 5'UTR Stem-Loop Driven Alpha-Synuclein mRNA Translation in H4 Neuroglioblastoma Cells. [Related pubchem assays: 1829 (Project Summary), 1814 (Primary HTS)]; format: functional
H4 = test: Luminescence Cell-Based Dose Response HTS to Identify Activators of 5'UTR Stem-Loop Driven Prion Protein mRNA Translation in H4 Neuroglioblastoma Cells. [Related pubchem assays: 1829 (Project Summary), 1814 (Primary HTS)]; format: functional; conditions: Homo sapiens
[8] = growth suppression of beta-catenin-knockout colon cells, dose response, cell-based, HCT116, human colon tumor (AID 1045); format: functional;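 note: HCT116 colon tumor cells with beta catenin knocked out; cells exposed to compound for 60 hours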
[9] = molecular target: T1, Ubiquitin-conjugating enzyme E2 N (Homo sapiens, UniProt P61088); format: functional;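 note: Dose-response confirmation in a TR-FRET assay detecting UBC13-driven polyubiquitin chain formation, inhibition measured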
T1 sequence (P61088 whole entry): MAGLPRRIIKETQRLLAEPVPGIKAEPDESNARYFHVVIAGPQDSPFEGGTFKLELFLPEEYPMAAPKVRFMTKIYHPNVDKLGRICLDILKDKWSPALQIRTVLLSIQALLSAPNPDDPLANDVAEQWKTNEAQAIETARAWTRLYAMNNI

[10] = growth suppression of PTEN-null colon cells, dose response, cell-based, HCT116 PTEN knockout (AID 1047); format: functional;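 note: HCT116 colon tumor cells with PTEN knocked out; cells exposed to compound for 60 hours before readout; potency for loss of cell viability measured by luminescence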
[11] = molecular target: T2, Rac GTPase-activating protein 1 (Homo sapiens, UniProt Q9H0H5); test: MgcRacGAP GTPase-activating activity inhibitors, confirmation, biochemical, ADP Hunter fluorescence, primary and confirmatory (AID 624330); format: functional
T2 sequence (Q9H0H5 whole entry): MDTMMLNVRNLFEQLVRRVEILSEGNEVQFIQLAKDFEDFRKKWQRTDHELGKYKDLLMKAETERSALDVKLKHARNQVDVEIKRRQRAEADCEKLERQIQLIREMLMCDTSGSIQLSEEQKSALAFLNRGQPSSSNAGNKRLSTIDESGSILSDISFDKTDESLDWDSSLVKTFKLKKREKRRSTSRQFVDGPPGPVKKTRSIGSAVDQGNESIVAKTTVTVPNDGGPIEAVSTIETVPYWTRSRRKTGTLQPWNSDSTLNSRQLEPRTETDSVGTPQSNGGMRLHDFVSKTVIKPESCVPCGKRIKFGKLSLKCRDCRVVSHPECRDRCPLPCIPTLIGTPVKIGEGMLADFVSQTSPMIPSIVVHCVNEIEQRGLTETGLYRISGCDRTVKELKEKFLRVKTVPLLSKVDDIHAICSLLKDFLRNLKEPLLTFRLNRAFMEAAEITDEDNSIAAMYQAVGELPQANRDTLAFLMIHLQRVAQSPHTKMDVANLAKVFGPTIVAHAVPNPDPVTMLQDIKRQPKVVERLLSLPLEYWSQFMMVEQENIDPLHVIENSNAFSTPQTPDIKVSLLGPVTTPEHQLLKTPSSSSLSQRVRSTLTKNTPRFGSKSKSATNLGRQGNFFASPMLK

[12] = molecular target: Induced myeloid leukemia cell differentiation protein Mcl-1 (Homo sapiens, UniProt Q07820); format: functional
[13] = molecular target: T3, Microphthalmia-associated transcription factor (Homo sapiens, UniProt O75030); test: TRPM1 promoter luciferase signal decrease, dose response, MITF inhibitor project, cell-based, SK-MEL-5, cherry-picked, set 3 (AID 493073); format: functional
T3 sequence (O75030 whole entry): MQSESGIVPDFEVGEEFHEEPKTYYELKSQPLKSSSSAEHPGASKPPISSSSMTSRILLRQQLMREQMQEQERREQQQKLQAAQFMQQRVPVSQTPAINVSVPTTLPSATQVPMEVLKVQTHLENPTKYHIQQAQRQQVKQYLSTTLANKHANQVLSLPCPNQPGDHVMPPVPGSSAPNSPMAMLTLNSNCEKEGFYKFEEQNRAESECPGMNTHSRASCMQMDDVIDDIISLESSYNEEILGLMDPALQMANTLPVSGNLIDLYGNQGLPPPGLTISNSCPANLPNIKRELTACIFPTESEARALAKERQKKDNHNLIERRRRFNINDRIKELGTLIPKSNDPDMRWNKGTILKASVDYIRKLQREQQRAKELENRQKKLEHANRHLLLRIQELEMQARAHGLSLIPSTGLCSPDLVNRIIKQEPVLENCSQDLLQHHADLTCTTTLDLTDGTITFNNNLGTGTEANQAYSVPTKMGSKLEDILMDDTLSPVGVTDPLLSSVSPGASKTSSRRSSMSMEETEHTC

Protein skinhead-1 = molecular target: T4, Protein skinhead-1 (Caenorhabditis elegans, UniProt P34707); format: functional
T4 sequence (P34707 whole entry): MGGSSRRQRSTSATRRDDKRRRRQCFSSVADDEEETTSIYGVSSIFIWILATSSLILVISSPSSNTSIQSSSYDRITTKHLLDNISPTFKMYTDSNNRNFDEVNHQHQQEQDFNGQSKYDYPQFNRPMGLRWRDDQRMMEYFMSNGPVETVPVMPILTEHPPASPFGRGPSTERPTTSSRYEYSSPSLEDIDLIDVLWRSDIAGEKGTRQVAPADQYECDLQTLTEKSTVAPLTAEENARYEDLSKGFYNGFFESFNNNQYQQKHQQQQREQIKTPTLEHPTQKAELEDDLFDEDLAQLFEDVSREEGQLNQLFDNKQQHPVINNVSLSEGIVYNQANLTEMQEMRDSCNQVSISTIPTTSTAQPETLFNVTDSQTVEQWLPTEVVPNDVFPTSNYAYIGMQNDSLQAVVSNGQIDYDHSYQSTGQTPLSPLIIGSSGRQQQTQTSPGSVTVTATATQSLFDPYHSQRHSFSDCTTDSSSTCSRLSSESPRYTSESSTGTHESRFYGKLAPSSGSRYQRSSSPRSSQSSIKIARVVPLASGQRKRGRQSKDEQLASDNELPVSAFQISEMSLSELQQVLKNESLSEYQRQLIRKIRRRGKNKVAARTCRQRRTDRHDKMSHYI

[14] = molecular target: T5, Polyadenylate-binding protein 1 (Homo sapiens, UniProt P11940); test: PABP1 MLLE–PAM2 interaction inhibitors, dose response, miRNA deadenylation inhibitor project, biochemical, fluorescence polarization, Cy5-PAM2 peptide, secondary (AID 602260); format: functional; conditions: read-out: IC50_Mean
[15] = molecular target: T5, Polyadenylate-binding protein 1; test: PABP1 MLLE–PAM2 binding inhibitor potency, dose response, biochemical, fluorescence polarization, FITC-PAM2 peptide (AID 602259); format: functional; conditions: read-out: IC50_Mean
[16] = Luminescence Cell-Based Dose Retest to Confirm Inhibitors of Cancer Stem Cells. [Related pubchem assays (depositor defined):AID2717, AID2721]; format: functional; conditions: Homo sapiens
INS1 = test: beta cell apoptosis inhibitors, cytokine rescue, dose response, luminescence, retest (AID 449756); format: functional, cell-based; conditions: Rattus norvegicus;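 note: cell death triggered by IL-1 beta plus TNF-alpha plus IFN-gamma mixture; protective hits raise ATP signal compared with cytokine alone wells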
Large T antigen = Large T antigen (Simian virus 40, UniProt P03070); format: functional, Betapolyomavirus macacae;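 note: Confirmatory-stage PubChem screen for compounds that inhibit SV40 T antigen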
Chain of Large T antigen (P03070 whole entry): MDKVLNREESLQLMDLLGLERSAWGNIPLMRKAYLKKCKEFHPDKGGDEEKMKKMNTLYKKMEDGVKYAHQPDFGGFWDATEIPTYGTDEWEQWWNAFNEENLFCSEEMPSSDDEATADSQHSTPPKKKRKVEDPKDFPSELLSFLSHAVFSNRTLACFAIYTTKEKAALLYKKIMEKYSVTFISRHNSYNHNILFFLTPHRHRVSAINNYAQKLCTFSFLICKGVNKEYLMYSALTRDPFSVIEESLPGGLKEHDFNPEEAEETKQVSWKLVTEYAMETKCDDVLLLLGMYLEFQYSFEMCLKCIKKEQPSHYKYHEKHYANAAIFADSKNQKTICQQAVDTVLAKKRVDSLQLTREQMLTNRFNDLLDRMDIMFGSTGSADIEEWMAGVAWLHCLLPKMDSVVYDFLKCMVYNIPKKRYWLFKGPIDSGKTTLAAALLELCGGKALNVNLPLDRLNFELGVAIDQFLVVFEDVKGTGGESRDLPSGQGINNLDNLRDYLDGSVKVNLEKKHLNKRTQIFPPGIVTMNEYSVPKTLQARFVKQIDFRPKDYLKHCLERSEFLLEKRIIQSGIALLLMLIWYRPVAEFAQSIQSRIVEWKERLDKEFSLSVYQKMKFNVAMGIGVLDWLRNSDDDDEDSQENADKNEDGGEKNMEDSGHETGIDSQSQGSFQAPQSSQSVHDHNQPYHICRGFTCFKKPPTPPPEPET

Chain of Induced myeloid leukemia cell differentiation protein Mcl-1 (Q07820 whole entry): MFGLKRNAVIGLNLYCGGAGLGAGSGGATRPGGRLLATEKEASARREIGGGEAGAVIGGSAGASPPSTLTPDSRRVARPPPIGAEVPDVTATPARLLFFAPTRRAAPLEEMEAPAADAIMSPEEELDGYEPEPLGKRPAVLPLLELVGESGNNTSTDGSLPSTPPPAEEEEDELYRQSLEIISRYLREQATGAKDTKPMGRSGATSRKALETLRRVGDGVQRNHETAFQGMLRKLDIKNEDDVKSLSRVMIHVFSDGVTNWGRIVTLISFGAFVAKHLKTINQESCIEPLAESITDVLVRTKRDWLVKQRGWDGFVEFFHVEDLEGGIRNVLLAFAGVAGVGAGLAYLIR
T5 sequence (P11940 whole entry): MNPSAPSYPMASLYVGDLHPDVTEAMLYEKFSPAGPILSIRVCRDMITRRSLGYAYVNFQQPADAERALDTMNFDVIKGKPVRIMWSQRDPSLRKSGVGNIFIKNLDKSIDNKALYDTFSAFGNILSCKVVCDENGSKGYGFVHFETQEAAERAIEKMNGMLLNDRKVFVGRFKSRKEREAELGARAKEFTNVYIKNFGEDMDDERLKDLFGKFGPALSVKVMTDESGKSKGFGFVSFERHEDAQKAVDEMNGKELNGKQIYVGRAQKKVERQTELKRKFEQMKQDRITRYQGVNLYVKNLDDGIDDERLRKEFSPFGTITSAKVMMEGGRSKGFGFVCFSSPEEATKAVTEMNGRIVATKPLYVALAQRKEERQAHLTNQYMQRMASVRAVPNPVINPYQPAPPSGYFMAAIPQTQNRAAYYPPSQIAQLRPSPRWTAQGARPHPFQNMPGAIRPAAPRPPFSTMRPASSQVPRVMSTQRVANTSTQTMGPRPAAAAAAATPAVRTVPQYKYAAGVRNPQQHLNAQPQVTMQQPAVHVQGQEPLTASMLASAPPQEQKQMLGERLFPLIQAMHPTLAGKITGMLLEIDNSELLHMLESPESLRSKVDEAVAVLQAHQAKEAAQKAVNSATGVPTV

For `Oc1ccc(CN2CCC(Cc3ccccc3)CC2)c2cccnc12`, the EC50 (cells [1]) was 6.9 µM (active), the EC50 [2] was 1.99 µM (active) and the EC50 (cells [3]) was > 350 µM (not active). For the same compound, the EC50 [4] was 22.3 µM (active).
With `CC1=C(C(=O)OCc2ccccc2)C(/C=C/c2ccccc2)NC(S)=N1` (configuration not stated) the AC50 [5] was 4.08 µM (active).
For `Cc1ccc2[nH]c(N3CCN(C)CC3)nc2c1`, the EC50 (cells [1]) was > 350 µM (not active), the EC50 [6] was 18.7 µM (active) and the EC50 [7] was 3.62 µM (active). For the same compound, the EC50 (H4) was 20 µM (active) and the EC50 (cells [3]) was > 350 µM (not active).
For `Cc1cc(C2N=C(N)Nc3nc4ccccc4n32)c(C)n1-c1ccccc1Cl` (configuration not stated), the EC50 [8] was 23.4 µM (active), the IC50 [9] was > 20 µM (inactive) and the EC50 [10] was 30.1 µM (active).
With `CCN1CCN(c2ccc([N+](=O)[O-])cc2C=C2C(=O)NC(=O)NC2=O)CC1` the EC50 (cells [1]) was > 350 µM (not active) and the EC50 (cells [3]) was > 350 µM (not active).
With `COc1ccc(C2=CC3=C(Br)C(=O)C(C)(O)C(=O)C3=CO2)cc1` (configuration not stated) the AC50 [5] was 2.62 µM (active).
For `CCN(CCO)C1CC(=O)N(c2ccccc2C)C1=O` (configuration not stated), the AC50 [5] was 2.14 µM (active).
With `COc1ccccc1CNCC(=O)Nc1ccc(N(C)C)cc1` the IC50 [11] was 32.1 µM (active).
In the case of `CCN=c1ccc(Br)cc(C(=O)/C=C/c2ccc(Cl)cc2)c1O`, the IC50 [12] is reported as 3.55 µM (active).
With `CCN(CC)S(=O)(=O)c1cccc(C(=O)NCC(c2ccccc2)N(C)C)c1` (configuration not stated) the AC50 [5] was 3.2 µM (active).
In the case of `Cc1ccc(O)c(NC(=O)c2ccc3c(c2)C(=O)N(Cc2ccco2)C3=O)c1`, the EC50 (cells [1]) is reported as > 350 µM (not active) and the EC50 (cells [3]) is reported as 52.2 µM (active).
With `CCN1C(=O)/C(=C/c2ccc3c(c2)CCN3CCCCl)C(=O)NC1=S` the IC50 [12] was 3.4 µM (active).
With `COc1cccc(N2CC(C(=O)Oc3ccc4ccccc4c3)CC2=O)c1` (configuration not stated) the IC50 [11] was 16.1 µM (active).
In the case of `CCN1c2ccccc2NC2C1C(C(C)=O)C(=O)N2c1ccc(Cl)cc1` (configuration not stated), the AC50 [13] is reported as 12.7 µM (active).
For `Cc1cc(NC(=O)CN2CCN(C)CC2)no1`, the IC50 [11] was 157 µM (active).
In the case of `Cc1ccc(S(=O)(=O)Nc2nsc(N)n2)cc1`, the IC50 [11] is reported as 82.8 µM (active).
With `C/C(=C\C(=O)OCC(=O)NCc1ccccc1)C(=O)OCC(=O)NCc1ccccc1` the EC50 (cells [1]) was > 350 µM (not active) and the EC50 (cells [3]) was > 350 µM (not active).
With `CSCc1nc2sc(C(=O)Nc3nc(C)cs3)c(C)c2c(=O)[nH]1` the IC50 [12] was 3.89 µM (active).
In the case of `CCOC(=O)CN(C(=O)COc1nc(C)cc(C)c1C#N)c1cccc(Cl)c1`, the EC50 (cells [1]) is reported as > 350 µM (not active) and the EC50 (cells [3]) is reported as > 350 µM (not active).
With `Cc1cc2cc(CNC(=O)Cc3ccc([N+](=O)[O-])cc3)ccc2n1C` the IC50 (Protein skinhead-1) was > 100 µM (inactive), the IC50 [14] was > 66 µM (inactive) and the IC50 [15] was > 66 µM (inactive).
With `COc1ccc(OCCCC(=O)Nc2ccc(S(=O)(=O)N3CCOCC3)cc2)cc1` the IC50 [9] was > 20 µM (inactive).
With `CC(=O)NC(C)c1cc(Cl)c2ccccc2c1O` (configuration not stated) the IC50 [9] was > 20 µM (inactive).
In the case of `O=C1NC(=O)C(=Cc2cccs2)C(=O)N1`, the IC50 [11] is reported as 188 µM (active).
For `C=CC(n1cncn1)C(O)(c1ccccc1)c1ccccc1` (configuration not stated), the AC50 [5] was 0.826 µM (active).
In the case of `O=C(N/N=C/c1ccccn1)c1cc(-c2ccccc2Cl)n[nH]1`, the IC50 [9] is reported as > 20 µM (inactive).
For `COc1ccc2nc(C)cc(SCC(=O)N/N=C/c3ccc(O)cc3O)c2c1`, the EC50 (cells [1]) was 12.9 µM (active), the AC50 [16] was 2.74 µM (active) and the AC50 [13] was 10.1 µM (active). For the same compound, the EC50 (cells [3]) was > 350 µM (not active) and the AC50 (INS1) was 2.65 µM (active).
In the case of `O=C(N/N=C/c1ccc(O)c(O)c1)c1ccc(CSc2cccc3cccnc23)cc1`, the IC50 (Large T antigen) is reported as 5.43 µM (active) and the IC50 [12] is reported as 4.61 µM (active).

Source: ChEMBL document CHEMBL1201862, “PubChem BioAssay data set” (2004)
